Tests used:
OCI-Ly7 = test: Combination study, ATPLite 72 h, dose matrix (Synergy Score, CI50); conditions: combination with Compound 1, 72 h
Description: (§1) Cells are thawed from a liquid nitrogen preserved state. Once cells have been expanded and divide at their expected doubling times, screening begins. Cells are seeded in growth media in either black 1536-well or 384-well tissue culture treated plates. Cells are then equilibrated in assay plates via centrifugation and placed in incubators attached to the Dosing Modules at 37° C. for 24 hours before treatment. […] These Tzero (To) plates are read using ultra-sensitive luminescence on Envision plate readers (Perkin Elmer). Treated assay plates are incubated with compound for 72 hours. After 72 hours, plates are developed for endpoint analysis using ATPLite. All data points are collected via automated processes, quality controlled and analyzed using Zalicus software.
(§2) The measure of effect in the experiment can be the inhibition of cellular response relative to the untreated level (vehicle alone). […] The inhibition ranges from 0% at the untreated level to 100% when T=0. Inhibition levels are negative for agents that actually increase levels.
(§3) Growth Inhibition (GI) is used as a measure of cell viability. […] A GI reading of 100% represents complete growth inhibition—T72 compound-treated and T0 vehicle signals are matched. […] A GI reading of 200% represents complete death of all cells in the culture well. Compounds reaching an activity plateau of GI 200% are considered cytotoxic. GI is calculated by applying the following test and equation:
(§4) Combination analysis data were collected in a 6×6 dose matrix. Synergy is calculated by comparing a combination's response to those of its single compound, against the drug-with-itself dose-additive reference model. Deviations from dose additivity may be assessed visually on an isobologram or numerically with a Combination Index (CI). […] Additive effect is CI=1.0. […] Antagonistic effect is CI>1.0.
(§5) To measure combination effects in excess of Loewe additivity, a scalar measure to characterize the strength of synergistic interaction termed the Synergy Score is devised. The Synergy Score is calculated as:
(§6) The fractional inhibition for each component agent and combination point in the matrix is calculated relative to the median of all vehicle-treated control wells. The Synergy Score equation integrates the experimentally-observed activity volume at each point in the matrix in excess of a model surface numerically derived from the activity of the component agents using the Loewe model for additivity. Additional terms in the Synergy Score equation (above) are used to normalize for various dilution factors used for individual agents and to allow for comparison of synergy scores across an entire experiment. The inclusion of positive inhibition gating or an Idata multiplier removes noise near the zero effect level, and biases results for synergistic interactions at that occur at high activity levels.
(§7) Loewe Volume (Loewe Vol) is used to assess the overall magnitude of the combination interaction in excess of the Loewe additivity model. Loewe Volume is particularly useful when distinguishing synergistic increases in a phenotypic activity (positive Loewe Volume) versus synergistic antagonisms (negative Loewe Volume). […] This model defines additivity as a non-synergistic combination interaction where the combination dose matrix surface should be indistinguishable from either drug crossed with itself. The calculation for Loewe additivity is:

Mino = test: as above; conditions: combination with Compound 1
DOHH-2 = test: as above; conditions: combination with Compound 1, 72 h
OMP-2 = test: as above; conditions: combination with Compound 1; OPM-2
[1] = as above; conditions: combination with Compound 1; OPM-2
KARPAS-422 = test: as above; conditions: combination with Compound 1, 72 h
RPMI-8226 = test: as above; conditions: combination with Compound 1
SU-DHL-4-epst = test: as above; conditions: combination with Compound 1, 72 h
WSU-NHL = test: as above; conditions: combination with Compound 1, 72 h
HH = test: as above; format: cell-based; conditions: combination with Compound 1
Description: The method is described as follows.
Additive effect is CI=1.0. […] Antagonistic effect is CI>1.0.
The Synergy Score is calculated as: […]

TMD8 = test: as above; conditions: combination with Compound 1; TMD8; 72 h
Description: as §1
(§8) where T is treated cell count and V is untreated (vehicle) cell count (at 72 hours). I ranges from 0% (when T=V) to 100% (when T=0). […] The measure of effect in the experiment can be the inhibition of cellular response relative to the untreated level (vehicle alone). […] The inhibition ranges from 0% at the untreated level to 100% when T=0. Inhibition levels are negative for agents that actually increase levels. Other effect measures, such as an activity ratio r=T/V may be more appropriate for some assays. When activity ratios (e.g, fold increase over stimulated control) are being used, the effect can be measured using an induction 1=ln(T/V). With this definition, all effect expressions are the same as for inhibition.
as §3, §4
The isobologram was drawn by identifying the locus of concentrations that correspond to crossing the indicated inhibition level. This is done by finding the crossing point for each single agent concentration in a dose matrix across the concentrations of the other single agent. Practically, each vertical concentration CY is held fixed while a bisection algorithm is used to identify the horizontal concentration CX in combination with that vertical dose that gives the chosen effect level in the response surface Z(CX,CY). These concentrations are then connected by linear interpolation to generate the isobologram display. For synergistic interactions, the isobologram contour fall below the additivity threshold and approaches the origin, and an antagonistic interaction would lie above the additivity threshold. The error bars represent the uncertainty arising from the individual data points used to generate the isobologram. The uncertainty for each crossing point is estimated from the response errors using bisection to find the concentrations where Z−αZ(CX,CY) and Z+σZ(CX,CY) cross Icut, where αZ is the standard deviation of the residual error on the effect scale.
as §5
The fractional inhibition for each component agent and combination point in the matrix is calculated relative to the median of all vehicle-treated control wells.

KARPAS-299 = test: as above; conditions: combination with Compound 1
OCI-Ly3 = test: as above; conditions: combination with Compound 1; OCI-Ly3; 72 h
Description: as §1, §8, §3, §4, §5, §6, §7

SU-DHL-10-epst = test: as above; conditions: combination with Compound 1, 72 h
Description: as §1, §2, §3, §4, §5, §6, §7

RL = test: as above; conditions: combination with Compound 1, 72 h
Jeko-1 = test: as above; conditions: combination with Compound 1
GRANTA-519 = test: as above; conditions: combination with Compound 1
NCI-H929 = test: as above; conditions: combination with Compound 1
HBL-1 = test: as above; conditions: combination with Compound 1, 72 h
U-2932 = test: as above; conditions: combination with Compound 1, 72 h
Farage = test: as above; conditions: combination with Compound 1; Farage; 72 h

COc1ccc(-c2ccc3c(N4CCOC[C@@H]4C)nc(N4CCOC[C@@H]4C)nc3n2)cc1CO [AZD 8055]
S (S=0.01 to <0.5): CI50 growth inhibition (OCI-Ly7) | CI50 inhibition (Mino) | CI50 growth inhibition (DOHH-2) | CI50 inhibition (DOHH-2) | CI50 growth inhibition (KARPAS-422) | CI50 inhibition (KARPAS-422) | CI50 inhibition (SU-DHL-4-epst) | CI50 inhibition (WSU-NHL) | CI50 growth inhibition (HH) | CI50 inhibition (HH) | CI50 growth inhibition (TMD8) | CI50 inhibition (TMD8) | CI50 growth inhibition (OCI-Ly3) | CI50 growth inhibition (SU-DHL-10-epst) | CI50 inhibition (SU-DHL-10-epst) | CI50 growth inhibition (Jeko-1) | CI50 growth inhibition (HBL-1) | CI50 growth inhibition (U-2932) | CI50 growth inhibition (Farage) | CI50 inhibition (Farage)
W (W=≥1): CI50 inhibition (OMP-2) | CI50 inhibition (RPMI-8226) | CI50 growth inhibition (KARPAS-299) | CI50 growth inhibition (NCI-H929)
T (T=0.5 to <0.7): CI50 inhibition (OCI-Ly7) | CI50 growth inhibition (SU-DHL-4-epst) | CI50 growth inhibition (WSU-NHL) | CI50 inhibition (OCI-Ly3) | CI50 inhibition (Jeko-1) | CI50 growth inhibition (GRANTA-519) | CI50 inhibition (NCI-H929) | CI50 inhibition (HBL-1)
A1 (A1=0.0001 to <1): Synergy Score inhibition (Mino) | Synergy Score inhibition (OMP-2) | Synergy Score inhibition (RPMI-8226) | Synergy Score growth inhibition (KARPAS-299) | Synergy Score inhibition (KARPAS-299) | Synergy Score inhibition (OCI-Ly3) | Synergy Score inhibition (GRANTA-519) | Synergy Score inhibition (HBL-1)
U (U=0.7 to <1): CI50 growth inhibition (Mino) | CI50 growth inhibition [1] | CI50 growth inhibition (RPMI-8226) | CI50 inhibition (KARPAS-299) | CI50 growth inhibition (RL) | CI50 inhibition (RL) | CI50 inhibition (GRANTA-519) | CI50 inhibition (U-2932)
A3 (A3=>3): Synergy Score growth inhibition (OCI-Ly7) | Synergy Score growth inhibition (DOHH-2) | Synergy Score inhibition (DOHH-2) | Synergy Score growth inhibition (SU-DHL-4-epst) | Synergy Score inhibition (SU-DHL-4-epst) | Synergy Score growth inhibition (WSU-NHL) | Synergy Score inhibition (WSU-NHL) | Synergy Score growth inhibition (HH) | Synergy Score growth inhibition (TMD8) | Synergy Score inhibition (TMD8) | Synergy Score growth inhibition (SU-DHL-10-epst) | Synergy Score inhibition (SU-DHL-10-epst) | Synergy Score growth inhibition (Jeko-1) | Synergy Score growth inhibition (NCI-H929) | Synergy Score growth inhibition (HBL-1) | Synergy Score growth inhibition (Farage) | Synergy Score inhibition (Farage)
A2 (A2=1 to <3): Synergy Score inhibition (OCI-Ly7) | Synergy Score growth inhibition (Mino) | Synergy Score growth inhibition (OMP-2) | Synergy Score growth inhibition (KARPAS-422) | Synergy Score inhibition (KARPAS-422) | Synergy Score growth inhibition (RPMI-8226) | Synergy Score inhibition (HH) | Synergy Score growth inhibition (OCI-Ly3) | Synergy Score growth inhibition (RL) | Synergy Score inhibition (RL) | Synergy Score inhibition (Jeko-1) | Synergy Score growth inhibition (GRANTA-519) | Synergy Score inhibition (NCI-H929) | Synergy Score growth inhibition (U-2932) | Synergy Score inhibition (U-2932)

Nc1ncn([C@@H]2O[C@H](CO)[C@@H](O)[C@H]2O)c(=O)n1 [Azacitidine]
U (U=0.7 to <1): CI50 growth inhibition (DOHH-2) | CI50 inhibition (DOHH-2) | CI50 inhibition (KARPAS-422) | CI50 growth inhibition (TMD8) | CI50 inhibition (TMD8) | CI50 inhibition (RL) | CI50 growth inhibition (GRANTA-519) | CI50 growth inhibition (NCI-H929) | CI50 inhibition (NCI-H929)
T (T=0.5 to <0.7): CI50 growth inhibition (OCI-Ly7) | CI50 inhibition (OCI-Ly7) | CI50 growth inhibition (KARPAS-422) | CI50 growth inhibition (RPMI-8226) | CI50 growth inhibition (WSU-NHL) | CI50 growth inhibition (RL) | CI50 inhibition (Jeko-1)
W (W=≥1): CI50 inhibition (OMP-2) | CI50 inhibition (RPMI-8226) | CI50 growth inhibition (KARPAS-299) | CI50 inhibition (KARPAS-299) | CI50 inhibition (HBL-1) | CI50 inhibition (U-2932)
S (S=0.01 to <0.5): CI50 growth inhibition (Mino) | CI50 inhibition (Mino) | CI50 growth inhibition [1] | CI50 growth inhibition (SU-DHL-4-epst) | CI50 inhibition (SU-DHL-4-epst) | CI50 inhibition (WSU-NHL) | CI50 growth inhibition (HH) | CI50 inhibition (HH) | CI50 growth inhibition (OCI-Ly3) | CI50 growth inhibition (SU-DHL-10-epst) | CI50 inhibition (SU-DHL-10-epst) | CI50 growth inhibition (Jeko-1) | CI50 growth inhibition (HBL-1) | CI50 growth inhibition (U-2932) | CI50 growth inhibition (Farage) | CI50 inhibition (Farage)

— patent US20240325398A1, “COMBINATION THERAPIES” (Infinity Pharmaceuticals, Inc., priority 2014, published 2024)
